Columns and labels:
Format in all cases: cell-based
human TLR7 = molecular target: T1, human TLR7 (Homo sapiens, UniProt Q9NYK1); assay: TLR7 inhibition reporter assay (HEK-Blue SEAP reporter, gardiquimod stimulation); conditions: HEK-Blue cells overexpressing human TLR7, SEAP reporter, gardiquimod 7.5 μM, 22 hour incubation
T1 construct: host or cells: HEK-Blue cells
T1 sequence (Q9NYK1 27-1049): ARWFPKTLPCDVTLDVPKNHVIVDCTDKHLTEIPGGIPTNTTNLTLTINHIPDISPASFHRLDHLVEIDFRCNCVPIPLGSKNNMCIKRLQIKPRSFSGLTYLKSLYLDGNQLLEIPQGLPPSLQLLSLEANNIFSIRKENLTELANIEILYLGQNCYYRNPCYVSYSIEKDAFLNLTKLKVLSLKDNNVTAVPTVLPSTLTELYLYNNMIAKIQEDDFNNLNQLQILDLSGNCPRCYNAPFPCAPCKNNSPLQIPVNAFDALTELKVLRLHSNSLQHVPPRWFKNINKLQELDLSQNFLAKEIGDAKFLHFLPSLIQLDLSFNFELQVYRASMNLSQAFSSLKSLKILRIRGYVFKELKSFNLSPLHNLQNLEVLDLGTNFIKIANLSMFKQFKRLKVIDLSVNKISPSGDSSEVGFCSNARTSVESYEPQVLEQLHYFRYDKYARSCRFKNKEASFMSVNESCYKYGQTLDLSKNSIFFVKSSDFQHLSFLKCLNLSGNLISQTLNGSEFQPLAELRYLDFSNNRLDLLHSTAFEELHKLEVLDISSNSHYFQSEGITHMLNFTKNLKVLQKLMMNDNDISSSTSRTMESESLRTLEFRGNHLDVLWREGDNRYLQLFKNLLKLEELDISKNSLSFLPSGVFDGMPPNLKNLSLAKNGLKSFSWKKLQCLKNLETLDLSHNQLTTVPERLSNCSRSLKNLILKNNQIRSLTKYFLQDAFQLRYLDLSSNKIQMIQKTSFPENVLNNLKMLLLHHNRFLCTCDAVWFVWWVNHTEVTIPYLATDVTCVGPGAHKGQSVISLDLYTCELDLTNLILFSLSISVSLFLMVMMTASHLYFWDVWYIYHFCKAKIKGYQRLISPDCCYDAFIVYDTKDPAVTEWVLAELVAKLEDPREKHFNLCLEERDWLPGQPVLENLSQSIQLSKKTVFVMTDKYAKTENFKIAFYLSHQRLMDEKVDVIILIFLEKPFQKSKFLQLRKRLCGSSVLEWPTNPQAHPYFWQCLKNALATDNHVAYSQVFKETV
Experimental: (§1) TLR7/8/9 Inhibition Reporter Assays
(§2) HEK-Blue™-cells (Invivogen) overexpressing human TLR7, TLR8 or TLR9 receptors were used for screening inhibitors of these receptors using an inducible SEAP (secreted embryonic alkaline phosphatase) reporter gene under the control of the IFN-β minimal promoter fused to five NF-κB and AP-1-binding sites. Briefly, cells are seeded into Greiner 384 well plates (15000 cells per well for TLR7, 20,000 for TLR8 and 25,000 for TLR9) and then treated with test compounds in DMSO to yield a final dose response concentration range of 0.05 nM-50 μM. After a 30 minute compound pre-treatment at room temperature, the cells are then stimulated with a TLR7 ligand (gardiquimod at a final concentration of 7.5 μM), TLR8 ligand (R848 at a final concentration of 15.9 μM) or TLR9 ligand (ODN2006 at a final concentration of 5 nM) to activate NF-κB and AP-1 which induce the production of SEAP. After a 22 hour incubation at 37° C., 5% CO2, SEAP levels are determined with the addition of HEK-Blue™ Detection reagent (Invivogen), a cell culture medium that allows for detection of SEAP, according to manufacturer's specifications. The percent inhibition is determined as the % reduction in the HEK-Blue signal present in wells treated with agonist plus DMSO alone compared to wells treated with a known inhibitor.

human TLR9 = molecular target: T2, human TLR9 (Homo sapiens, UniProt Q9NR96); assay: TLR9 inhibition reporter assay (HEK-Blue SEAP reporter, ODN2006 stimulation); conditions: HEK-Blue cells overexpressing human TLR9, SEAP reporter, ODN2006 5 nM, 22 hour incubation
T2 construct: host or cells: HEK-Blue cells
T2 sequence (Q9NR96 26-1032): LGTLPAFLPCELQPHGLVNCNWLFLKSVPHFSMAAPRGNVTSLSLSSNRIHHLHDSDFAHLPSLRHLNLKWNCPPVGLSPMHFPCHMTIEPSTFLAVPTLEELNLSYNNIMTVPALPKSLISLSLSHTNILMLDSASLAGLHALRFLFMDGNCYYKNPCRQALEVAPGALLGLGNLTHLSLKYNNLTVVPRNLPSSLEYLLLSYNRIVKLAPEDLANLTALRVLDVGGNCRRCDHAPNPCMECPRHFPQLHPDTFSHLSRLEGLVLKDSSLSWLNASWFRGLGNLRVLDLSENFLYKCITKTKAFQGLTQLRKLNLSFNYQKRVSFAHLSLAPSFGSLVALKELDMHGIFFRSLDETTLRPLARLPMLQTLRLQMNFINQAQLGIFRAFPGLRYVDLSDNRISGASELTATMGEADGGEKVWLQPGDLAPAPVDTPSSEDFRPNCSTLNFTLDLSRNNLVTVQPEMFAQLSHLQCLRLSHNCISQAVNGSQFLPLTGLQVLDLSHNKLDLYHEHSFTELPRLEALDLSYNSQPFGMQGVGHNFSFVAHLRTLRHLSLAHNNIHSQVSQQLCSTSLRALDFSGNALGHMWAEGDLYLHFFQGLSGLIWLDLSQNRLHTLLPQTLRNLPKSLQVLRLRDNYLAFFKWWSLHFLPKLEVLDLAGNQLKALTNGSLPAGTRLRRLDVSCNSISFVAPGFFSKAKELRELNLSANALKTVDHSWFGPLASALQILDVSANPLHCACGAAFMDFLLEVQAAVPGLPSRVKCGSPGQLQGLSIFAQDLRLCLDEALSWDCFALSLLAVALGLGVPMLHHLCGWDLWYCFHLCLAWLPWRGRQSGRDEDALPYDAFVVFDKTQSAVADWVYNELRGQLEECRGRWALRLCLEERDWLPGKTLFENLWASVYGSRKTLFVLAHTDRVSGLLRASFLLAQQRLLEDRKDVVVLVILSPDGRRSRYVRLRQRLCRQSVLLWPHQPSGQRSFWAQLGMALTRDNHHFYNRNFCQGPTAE
Experimental: as §1, §2

human TLR8 = molecular target: T3, human TLR8 (Homo sapiens, UniProt Q9NR97); assay: TLR8 inhibition reporter assay (HEK-Blue SEAP reporter, R848 stimulation); conditions: HEK-Blue cells overexpressing human TLR8, SEAP reporter, R848 15.9 μM, 22 hour incubation
T3 construct: host or cells: HEK-Blue cells
T3 sequence (Q9NR97 27-1041): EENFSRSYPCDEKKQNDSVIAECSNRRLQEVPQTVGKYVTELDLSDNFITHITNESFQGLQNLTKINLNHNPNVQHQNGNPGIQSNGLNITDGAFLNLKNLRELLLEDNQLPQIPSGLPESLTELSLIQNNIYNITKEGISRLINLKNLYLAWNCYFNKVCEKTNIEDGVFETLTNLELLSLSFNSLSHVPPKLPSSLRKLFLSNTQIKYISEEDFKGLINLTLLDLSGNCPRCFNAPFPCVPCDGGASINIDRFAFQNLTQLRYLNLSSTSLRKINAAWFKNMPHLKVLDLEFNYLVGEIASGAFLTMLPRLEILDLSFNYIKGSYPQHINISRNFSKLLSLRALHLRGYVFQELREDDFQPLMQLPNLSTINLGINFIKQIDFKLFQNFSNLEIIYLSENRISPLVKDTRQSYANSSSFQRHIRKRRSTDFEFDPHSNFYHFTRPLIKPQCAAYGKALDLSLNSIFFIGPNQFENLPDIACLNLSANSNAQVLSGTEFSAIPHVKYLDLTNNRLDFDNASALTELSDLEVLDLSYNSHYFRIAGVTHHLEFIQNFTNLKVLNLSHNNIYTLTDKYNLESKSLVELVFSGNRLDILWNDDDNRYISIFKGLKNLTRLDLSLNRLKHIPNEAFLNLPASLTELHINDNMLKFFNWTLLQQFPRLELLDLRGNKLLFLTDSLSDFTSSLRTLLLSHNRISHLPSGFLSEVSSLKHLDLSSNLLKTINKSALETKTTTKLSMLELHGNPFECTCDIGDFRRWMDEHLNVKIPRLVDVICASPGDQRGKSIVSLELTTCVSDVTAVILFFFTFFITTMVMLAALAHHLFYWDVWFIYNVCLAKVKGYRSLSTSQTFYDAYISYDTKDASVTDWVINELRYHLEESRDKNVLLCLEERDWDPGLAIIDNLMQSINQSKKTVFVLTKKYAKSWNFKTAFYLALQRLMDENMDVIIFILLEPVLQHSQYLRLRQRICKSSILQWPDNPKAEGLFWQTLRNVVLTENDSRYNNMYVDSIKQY
Experimental: as §1, §2

IC50 (human TLR7) [µM]	IC50 (human TLR9) [µM]	IC50 (human TLR8) [µM]	SMILES
0.0215	3.06	0.0023	CC(C)c1c(-c2cc(-c3cncnc3)c(=O)n(C)c2)[nH]c2ccc(C3CCN(CC4CCOCC4)CC3)cc12 [Example 100, 5-(3-isopropyl-5-(1-((tetrahydro-2H-pyran-4-yl)methyl)piperidin-4-yl)-1H-indol-2-yl)-1-methyl-3-(pyrimidin-5-yl)pyridin-2(1H)-one]
0.012	1.86	0.0089	CCn1cc(-c2[nH]c3ccc(C4CCNCC4)cc3c2C(C)C)c(C)c(C)c1=O [Example 26, 1-ethyl-5-(3-isopropyl-5-(piperidin-4-yl)-1H-indol-2-yl)-3,4-dimethylpyridin-2(1H)-one]
0.0561	5.26	0.163	Cc1cc(-c2[nH]c3ccc(C4CCN(CCCC(F)(F)F)CC4)cc3c2C(C)C)cn(CC(C)C)c1=O [Example 110, 1-isobutyl-5-(3-isopropyl-5-(1-(4,4,4-trifluorobutyl)piperidin-4-yl)-1H-indol-2-yl)-3-methylpyridin-2(1H)-one]
0.004	0.959	0.0044	COc1cc(-c2[nH]c3ccc(C4CCN(C5CCOCC5)CC4)cc3c2C(C)C)cn(C)c1=O [Example 201, 5-(3-isopropyl-5-(1-(tetrahydro-2H-pyran-4-yl)piperidin-4-yl)-1H-indol-2-yl)-3-methoxy-1-methylpyridin-2(1H)-one]
0.0264	2.19	0.0707	Cc1cc(-c2[nH]c3ccc(C4CCN(CC(C)C)CC4)cc3c2C(C)C)cn(Cc2ccccc2)c1=O [Example 113, 1-benzyl-5-(5-(1-isobutylpiperidin-4-yl)-3-isopropyl-1H-indol-2-yl)-3-methylpyridin-2(1H)-one]
0.194	3.19	0.0957	COc1cc(-c2[nH]c3ccc(C4CCN(C(=O)CN(C)C)CC4)cc3c2C(C)C)c(C)n(C)c1=O [Example 275, 5-(5-(1-(dimethylglycyl)piperidin-4-yl)-3-isopropyl-1H-indol-2-yl)-3-methoxy-1,6-dimethylpyridin-2(1H)-one]
0.0241	14.9	0.0062	CCn1cc(-c2[nH]c3ccc(C4CCN(CC(=O)N(C)C)CC4)cc3c2C(C)C)cc(C)c1=O [Example 133, 2-(4-(2-(1-ethyl-5-methyl-6-oxo-1,6-dihydropyridin-3-yl)-3-isopropyl-1H-indol-5-yl)piperidin-1-yl)-N,N-dimethylacetamide]
0.0409	6.71	0.134	Cc1cc(-c2[nH]c3ccc(C4CCNCC4)cc3c2C(C)C)cn(C2CCOC2)c1=O (stereo not drawn) [Example 42, 5-(3-isopropyl-5-(piperidin-4-yl)-1H-indol-2-yl)-3-methyl-1-(tetrahydrofuran-3-yl)pyridin-2(1H)-one]
0.007	5.75	0.0082	Cc1cc(-c2[nH]c3ccc(C4CCN(C5CCOC5)CC4)cc3c2C(C)C)cn(C)c1=O (stereo not drawn) [Example 180, 5-(3-isopropyl-5-(1-(tetrahydrofuran-3-yl)piperidin-4-yl)-1H-indol-2-yl)-1,3-dimethylpyridin-2(1H)-one]
0.11	1.56	0.157	Cc1cc(-c2[nH]c3ccc(C4CCNCC4)cc3c2C(C)C)cn(CC(C)(C)O)c1=O [Example 43, 1-(2-hydroxy-2-methylpropyl)-5-(3-isopropyl-5-(piperidin-4-yl)-1H-indol-2-yl)-3-methylpyridin-2(1H)-one]
0.0069	8.84	0.0215	Cc1cc(-c2[nH]c3ccc(C4CCN(C)CC4)cc3c2C(C)C)nn(C)c1=O [Example 191, 6-(3-isopropyl-5-(1-methylpiperidin-4-yl)-1H-indol-2-yl)-2,4-dimethylpyridazin-3(2H)-one]
0.0129	3.33	0.016	CC(C)c1c(-c2cc(-c3ccc(F)nc3)c(=O)n(C)c2)[nH]c2ccc(C3CCN(C(C)C)CC3)cc12 [Example 342, 6′-fluoro-5-(3-isopropyl-5-(1-isopropylpiperidin-4-yl)-1H-indol-2-yl)-1-methyl-[3,3′-bipyridin]-2(1H)-one]
